From ChEMBL document CHEMBL4304789, “Design, Synthesis, and Biological Evaluation of 2,4-Imidazolinedione Derivatives as HDAC6 Isoform-Selective Inhibitors” (ACS Med Chem Lett, 2019)
Activity calls are given as the source filed them. No cut-off for these calls is given here.

What follows are molecules tested against Histone deacetylase (Homo sapiens) (UniProt Q13547+O15379+Q9UBN7+Q92769+Q9UQL6+Q8WUI4+Q9BY41+Q96DB2+P56524+Q9UKV0+Q969S8). Conditions: at 0.08 to 1.6 µM.
Description: Inhibition of HDAC in human HL60 cells assessed as increase in acetylation of H3 at 0.08 to 1.6 uM incubated for 24 hrs by western blot analysis

| inhibition | SMILES |
| --- | --- |
| Active | O=C(CCCCCCNC(=O)c1cnc(N(c2ccccc2)c2ccccc2)nc1)NO |

Each molecule was assayed against T1, Protein deacetylase HDAC6 (Homo sapiens, UniProt Q9UBN7) (assay: Inhibition of HDAC6 (unknown origin) using Ac-LeuGlyLys(Ac)-AMC as substrate preincubated for 5 mins followed by substrate addition and measured after 60 mins by fluorescence based assay). Conditions: not given.
T1 sequence (Q9UBN7 whole entry): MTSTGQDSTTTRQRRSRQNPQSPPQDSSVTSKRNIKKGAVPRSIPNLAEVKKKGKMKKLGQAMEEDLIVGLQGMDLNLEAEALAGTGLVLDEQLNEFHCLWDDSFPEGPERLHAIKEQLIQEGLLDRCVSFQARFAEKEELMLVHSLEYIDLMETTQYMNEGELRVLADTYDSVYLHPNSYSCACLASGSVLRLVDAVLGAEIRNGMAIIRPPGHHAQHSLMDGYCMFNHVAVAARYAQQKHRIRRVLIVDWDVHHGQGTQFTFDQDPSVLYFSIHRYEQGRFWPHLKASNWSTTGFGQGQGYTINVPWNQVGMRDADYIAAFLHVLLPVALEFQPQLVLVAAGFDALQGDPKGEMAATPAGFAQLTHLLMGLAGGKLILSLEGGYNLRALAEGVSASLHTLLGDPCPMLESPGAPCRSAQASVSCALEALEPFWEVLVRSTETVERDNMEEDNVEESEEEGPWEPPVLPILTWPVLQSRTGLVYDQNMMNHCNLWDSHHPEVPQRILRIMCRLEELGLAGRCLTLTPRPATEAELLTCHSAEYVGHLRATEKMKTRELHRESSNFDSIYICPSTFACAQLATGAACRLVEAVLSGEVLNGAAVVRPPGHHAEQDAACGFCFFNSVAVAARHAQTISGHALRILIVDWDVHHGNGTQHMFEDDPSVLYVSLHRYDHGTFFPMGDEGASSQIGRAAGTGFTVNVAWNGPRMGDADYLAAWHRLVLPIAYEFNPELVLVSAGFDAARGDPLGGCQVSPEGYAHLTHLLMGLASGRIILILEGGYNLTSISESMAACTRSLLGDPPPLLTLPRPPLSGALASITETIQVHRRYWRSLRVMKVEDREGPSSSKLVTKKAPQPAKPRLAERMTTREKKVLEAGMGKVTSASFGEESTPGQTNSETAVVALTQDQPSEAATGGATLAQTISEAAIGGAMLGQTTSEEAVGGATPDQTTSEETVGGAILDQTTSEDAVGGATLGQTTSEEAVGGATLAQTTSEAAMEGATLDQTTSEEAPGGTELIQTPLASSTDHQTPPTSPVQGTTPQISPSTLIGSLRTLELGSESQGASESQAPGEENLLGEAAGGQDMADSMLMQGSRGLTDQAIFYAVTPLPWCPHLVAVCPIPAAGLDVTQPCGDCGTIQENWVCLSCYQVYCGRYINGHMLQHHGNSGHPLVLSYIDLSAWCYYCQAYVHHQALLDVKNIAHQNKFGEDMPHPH

| SMILES | IC50 [nM] |
| --- | --- |
| Cc1ccc(CN2C(=O)N(c3ccc(Cl)cc3)C(=O)C2CCC(=O)NCc2ccc(C(=O)NO)cc2)cc1 (centres undefined) | 18.9 |
| O=C(CCC1C(=O)N(c2ccc(Cl)cc2)C(=O)N1Cc1ccccc1)Nc1cccc(C(=O)NO)c1 (centres undefined) | > 40 |
| Cc1ccc(CN2C(=O)N(c3ccc(Cl)cc3)C(=O)C2CCC(=O)Nc2cccc(C(=O)NO)c2)cc1 (centres undefined) | > 40 |
| Cc1ccc(CN2C(=O)N(C3CCCCC3)C(=O)C2CCC(=O)NCc2ccc(C(=O)NO)cc2)cc1 (centres undefined) | 17 |
| CCCN1C(=O)N(C2CCCCC2)C(=O)C1CCC(=O)Nc1ccc(C(=O)NO)cc1 (centres undefined) | > 40 |

Second part, the molecule after the results:

| IC50 [nM] | SMILES |
| --- | --- |
| 12.7 | O=C(CCC1C(=O)N(c2ccc(Cl)cc2)C(=O)N1Cc1ccccc1)NCc1ccc(C(=O)NO)cc1 (centres undefined) |
| 11.8 | CN1C(=O)N(c2ccc(Cl)cc2)C(=O)C1CCC(=O)NCc1ccc(C(=O)NO)cc1 (centres undefined) |
| 13.6 | O=C(CCC1C(=O)N(c2ccccc2)C(=O)N1Cc1ccc(Br)cc1)NCc1ccc(C(=O)NO)cc1 (centres undefined) |
| 9.8 | O=C(CCC1C(=O)N(Cc2ccccc2)C(=O)N1Cc1ccc(Br)cc1)Nc1ccc(C(=O)NO)cc1 (centres undefined) |
| 12.6 | CCCN1C(=O)N(c2ccc(Cl)cc2)C(=O)C1CCC(=O)Nc1ccc(C(=O)NO)cc1 (centres undefined) |
| 10.3 | Cc1ccc(CN2C(=O)N(C3CCCCC3)C(=O)C2CCC(=O)Nc2ccc(C(=O)NO)cc2)cc1 (centres undefined) |
| 7 | CN1C(=O)N(c2ccc(Cl)cc2)C(=O)C1CCC(=O)Nc1ccc(C(=O)NO)cc1 (centres undefined) |
| 16.5 | O=C(CCC1C(=O)N(c2ccc(Cl)cc2)C(=O)N1Cc1ccc(Br)cc1)NCc1ccc(C(=O)NO)cc1 (centres undefined) |
